Test results: PMC10567728, “Targeted imaging of uPAR expression in vivo with cyclic AE105 variants” (Scientific Reports, 2023)
Read-outs that look alike come from different tables or passages of the source. Positions of bridges follow the written chain, without caps; N, C: chain ends. Non-standard residues stand in square brackets, D forms with d. Residues, ends and D or L forms follow the SMILES beside them. *: point of attachment. DOTA = O=C(O)CN1CCN(CC(=O)O)CCN(CC(=O)*)CCN(CC(=O)O)CC1; Cha = N[C@@H](CC1CCCCC1)C(=O)O

Legend:
[1] = molecular target: T1, uPAR•uPA interaction (Homo sapiens, UniProt Q03405); experiment: SPR competition assay of the uPAR•uPA interaction; type: binding; settings: for IC50: competition of uPAR•uPA interaction, 2 nM uPAR, 20 °C, n = 3
T1 construct: Recombinant human uPAR^1–283 was expressed; made in house; host or cells: Drosophila melanogaster S2 cells
T1 sequence (Q03405 23-305): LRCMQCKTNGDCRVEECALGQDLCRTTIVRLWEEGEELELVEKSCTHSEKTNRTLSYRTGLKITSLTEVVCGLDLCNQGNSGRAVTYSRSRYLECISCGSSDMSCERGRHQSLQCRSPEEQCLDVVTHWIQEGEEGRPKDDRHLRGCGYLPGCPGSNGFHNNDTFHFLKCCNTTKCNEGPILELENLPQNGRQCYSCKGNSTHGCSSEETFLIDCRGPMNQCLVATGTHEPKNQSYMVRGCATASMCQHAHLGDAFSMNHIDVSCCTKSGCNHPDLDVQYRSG
Method: The IC50-values of antagonistic peptides on the uPAR•uPA interaction were determined with SPR using a Biacore T200™ or Biacore 3000™ instruments (Cytiva) essentially as described[4],[56],[77]. In brief, we immobilized high levels of pro-uPA^S356A (0.1 pmol pro-uPA/mm^2) on a CM5 sensor chip via amine coupling. The experiments were conducted by injecting 2 nM uPAR in presence of a threefold dilution series of a given antagonistic peptide for 300 s with a flow rate of 50 µL/min at 20 °C. The high immobilization levels result in binding conditions that are entirely controlled by mass transport limitations (MTL). Accordingly, the observed association rates (vobs) are directly proportional to the concentrations of binding-active uPAR in solution. To determine the IC50, we also measured a standard curve of uPAR binding (a twofold dilution series of 0.06 to 2 nM uPAR, linear due to MTL). The running buffer was 10 mM HEPES, 150 mM NaCl, 3 mM EDTA, and 0.05% (v/v) surfactant P-20 at pH 7.4, and the regeneration buffer was 0.1 M acetic acid in 0.5 M NaCl.

[2] = molecular target: T2, uPAR (Homo sapiens, UniProt Q03405); experiment: SPR real-time binding kinetics, peptides in solution and immobilised uPAR
T2 construct: Recombinant human uPAR^1–283 was expressed; made in house; host or cells: Drosophila melanogaster S2 cells
T2 sequence (Q03405 23-305): as above
Method: The real-time binding kinetics of uPAR•peptide interactions were measured with SPR using a Biacore T200™(Cytiva); essentially as described in[56],[77]. In brief, uPAR was covalently immobilised on a CM5 sensor chip via amine coupling resulting in a surface density of 1157–1581 RU (~ 33–44 fmol/mm^2). The binding kinetics for the peptides to immobilised uPAR were measured using a single cycle protocol. In this setup, peptides were injected as five serial two-fold dilutions with a contact time of 200 s. After the last analyte injection, the dissociation time was set to 1000 s. The sensor chip was regenerated with two consecutive injections of 0.1 M acetic acid in 0.5 M NaCl. All experiments were conducted at 20 °C with a flow rate of 50 µL/min in 10 mM HEPES, 150 mM NaCl, 3 mM EDTA, and 0.05% (v/v) surfactant P-20 at pH 7.4. The kinetic rate constants (kon and koff) were determined by non-linear regression fitting of the curves to the simple bimolecular interaction model (BiacoreT200 Evaluation™ 3.0 software).

[3] = molecular target: T2, uPAR; experiment: Nano-DSF thermal stability of uPAR•peptide complexes; settings: for Tm (apparent melting temperature of uPAR•peptide complex): 15 µM uPAR, 30 µM peptide, PBS pH 7.4, n = 3; for increase in apparent Tm: DOTA-conjugated peptides, compared to (1b)
Method: The thermal stability of the uPAR•peptide complexes was analyzed with Nano-DSF using a Prometheus NT.48™ (Nanotemper). uPAR (15 µM) was mixed with twofold excess of peptide (30 µM) in PBS pH 7.4 and incubated for 15 min at RT to ensure complex formation. Samples containing either 15 µM uPAR or 30 µM of each peptide were included as controls. The samples were loaded into standard capillaries and in triplicates. To unfold the proteins, the samples were exposed to an increasing temperature gradient from 20 to 95 °C with a ramping rate of 1 °C/min. The excitation power was set to 50% (Ex.280 nm) and the fluorescence emission collected at 330 nm and 350 nm. The melting temperatures of the complexes were determined in the PR.ThermControl software (Nanotemper) from the first derivative of the fluorescence ratio (350 nm/330 nm).

[4] = test system: uPAR expression in U87MG tumor-bearing mice; type: in vivo; settings: [64Cu]Cu-DOTA peptides
Method: Five weeks old female NMRI nude mice were purchased from Janvier (Le Genest-Saint-Isle, France) and housed in groups to acclimatize for a week upon arrival with light/dark period of 12/12 h and under controlled environmental conditions (temperature: 20–22 °C, relative humidity: 55%). Access to fresh water and standard pellet diet was provided ad libitum. Human glioblastoma cancer cell line U87MG (ATCC, Manassas, USA) was cultured in Dulbecco’s modified eagle medium (DMEM) supplemented with 10% fetal bovine serum and 1% penicillin–streptomycin at 37 °C and 5% CO2. Cells were harvested by trypsinization at a confluence of 70–90%. Mice were anesthetized (3–4% sevoflurane in 65% N2 and 35% O2) and ~ 4 × 10^6 U87MG cells resuspended in 100 μL PBS were injected subcutaneously into the right flank. Tumors were allowed to grow for 20 days. Tumor sizes were monitored using caliper measurements (Volume = 0.5 x (Length x Width^2)).
Tumor-bearing mice (tumor volumes (mean ± SD) of 221 ± 105 mm^3) were grouped (n = 6 per group) and anesthetized (3–4% sevoflurane in 65% N2 and 35% O2) prior to imaging. The four different [^64Cu]Cu–DOTA conjugated peptides were administered via tail vein injections of 5.4 ± 0.4 MBq corresponding to 118 ± 7 pmol (1b), 111 ± 4 pmol (8b), 92 ± 3 pmol (9b), and 75 ± 4 pmol (11b) (mean ± SD). Whole-body imaging consisting of a CT acquisition followed by a static PET acquisition was performed on an Inveon® small animal imaging system (Siemens Medical Systems, Malvern, PA, USA). PET/CT imaging was performed 1 h, 22 h, and 46 h post-injection (p.i.) of tracer with a 5 min, 10 min and 15 min PET scan, respectively. During scans the animals were placed on a heated bedding system to keep the body temperature stable. The PET acquisition was performed with an energy window of 350–650 keV and a time resolution of 6 ns, and data was corrected for dead time and decay. The CT scan consisted of 360 projections, with a tube voltage of 65 kV, a tube current of 500 μA and an exposure time of 400 ms per projection. Sinograms from PET scans were reconstructed using a 3-dimensional maximum a posteriori algorithm with correction for scatter and attenuation (CT-based). PET and CT images were co-registered and analyzed using Inveon Research Workplace software (Siemens Medical Solutions). The mean percentage of injected dose per grams (%ID/g) in different tissues was extracted by manually creating regions of interest (ROI) on fused PET/CT images.

[5] = test system: U87MG tumor-bearing mice; experiment: Ex vivo biodistribution by gamma-counting of resected organs; type: in vivo; settings: [64Cu]Cu-DOTA peptides, ex vivo at 46 h; also tumor to muscle or heart ratios
Method: After the last PET/CT scan at 46 h p.i., mice were euthanized by cervical dislocation under anesthesia, and tumor, blood, heart, lung, liver, spleen, kidney, and muscle tissue were resected. All tissues were weighted, and the radioactivity measured in a gamma counter (Wizard2, Perkin Elmer). Data was corrected for decay, tissue weight and injected amount of radioactivity.

[6] = molecular target: uPAR; settings: read-out: KD of the uPA•uPAR interaction; cited from earlier work
[7] = [63Cu]-DOTA labelled peptides, single-cycle SPR
[8] = single cycle SPR, immobilised uPAR, 20 °C
[9] = single cycle SPR, immobilised uPAR, 20 °C, 1:1 model
[10] = single cycle SPR, immobilised uPAR, 20 °C, read-out: kon

With CC(C)C[C@@H]1NC(=O)[C@H](Cc2ccc(O)cc2)NC(=O)[C@H](NC(=O)[C@@H](CO)NC(=O)[C@H](Cc2ccccc2)NC(=O)[C@H](CC2CCCCC2)NC(=O)[C@H](CC(=O)O)NC(=O)CN2CCN(CC(=O)O)CCN(CC(=O)O)CCN(CC(=O)O)CC2)CSSC[C@@H](C(N)=O)NC(=O)[C@H](Cc2c[nH]c3ccccc23)NC1=O [9b] ({DOTA}-D[Cha]F[dS][dC]YLWC-NH2; disulfide 5-9) the IC50 [1] was 7.3 ± 0.2 nM, the Kd [2, 7] was 22 nM and the koff [2, 7] was 0.00659 ± 2e-05 s⁻¹. For the same compound, the kon [2, 7] was 2.99 ± 0.04 105 M-1 s-1, the koff [2, 8] was 0.002744 ± 4e-06 s⁻¹ and the Kd [2, 9] was 4.26 nM. For the same compound, the kon [2, 10] was 644000 ± 2000 M⁻¹ s⁻¹, the “Tm (apparent melting temperature of uPAR•peptide complex)” value [3] was no less than 70 °C and the “increase in apparent Tm” value [3] was “approximately 11 °C”. For the same compound, the “tumor uptake and tumor-to-organ ratios compared to linear control (8b)” value [4] was “significant albeit weak improvement”, the “difference in tumor max compared to (8b)” value ([4]; PET at 22 h) was “statistically significant” and the “tracer uptake compared to (8b)” value ([4]; all PET scans (1 h, 22 h, 46 h)) was “small but consistently higher uptake”. The “difference in activity of resected tumors compared to (8b)” value [5] was “statistically significant”.
In the case of “urokinase-type plasminogen activator [uPA]”, the Kd [6] is listed as 0.02 nM.
With CC(C)C[C@H](NC(=O)[C@H](Cc1ccc(O)cc1)NC(=O)[C@@H](CCCNC(=N)N)NC(=O)[C@@H](CO)NC(=O)[C@H](Cc1ccccc1)NC(=O)[C@H](CC1CCCCC1)NC(=O)[C@H](CC(=O)O)NC(=O)CN1CCN(CC(=O)O)CCN(CC(=O)O)CCN(CC(=O)O)CC1)C(=O)N[C@@H](Cc1c[nH]c2ccccc12)C(=O)N[C@@H](CO)C(N)=O [8b] the “IC50 of DOTA-conjugated peptide compared to unconjugated peptide” value ([1]; (1b) vs (1), (8b) vs (8)) was “four to fivefold higher”, the IC50 [1] was 8.2 ± 0.1 nM and the Kd [2, 7] was 13.9 nM. For the same compound, the koff [2, 7] was 0.00425 ± 1e-05 s⁻¹, the “reduction of affinity on DOTA-conjugation” value ([2]; real-time binding kinetics, vs unconjugated peptides) was 8–11 fold and the koff [2, 8] was 0.002064 ± 2e-06 s⁻¹. The Kd [2, 9] was 4.22 nM, the kon [2, 10] was 490000 ± 1000 M⁻¹ s⁻¹ and the “Tm (apparent melting temperature of uPAR•peptide complex)” value [3] was ~ 70 °C. For the same compound, the “increase in apparent Tm” value [3] was “approximately 11 °C” and the “tumor uptake and imaging contrast, (1b) compared with (8b)” value ([4]; PET scanning or ex vivo counting of resected organs) was “no significant differences”.
